Results: patent US20260297060A1, “COMPOUNDS FOR THE DEGRADATION OF MUTANT BRAF” (C4 THERAPEUTICS, INC., priority 2023, published 2026)
Like-named read-outs stand apart in the source and are kept apart here.

Key:
[1] = target: T1, BRAF V600E (Homo sapiens, UniProt P15056+Q96SW2, V600E); assay: BRAF V600E HiBiT Degradation Assay; assay type: cell-based
T1 construct: knock-in of the HiBiT tag to the endogenous BRAF V600E locus; host or cells: A375.10 (A375 clonal line, CRISPR HiBiT knock-in at the endogenous BRAF V600E locus)
T1 sequence (P15056 whole entry V600E): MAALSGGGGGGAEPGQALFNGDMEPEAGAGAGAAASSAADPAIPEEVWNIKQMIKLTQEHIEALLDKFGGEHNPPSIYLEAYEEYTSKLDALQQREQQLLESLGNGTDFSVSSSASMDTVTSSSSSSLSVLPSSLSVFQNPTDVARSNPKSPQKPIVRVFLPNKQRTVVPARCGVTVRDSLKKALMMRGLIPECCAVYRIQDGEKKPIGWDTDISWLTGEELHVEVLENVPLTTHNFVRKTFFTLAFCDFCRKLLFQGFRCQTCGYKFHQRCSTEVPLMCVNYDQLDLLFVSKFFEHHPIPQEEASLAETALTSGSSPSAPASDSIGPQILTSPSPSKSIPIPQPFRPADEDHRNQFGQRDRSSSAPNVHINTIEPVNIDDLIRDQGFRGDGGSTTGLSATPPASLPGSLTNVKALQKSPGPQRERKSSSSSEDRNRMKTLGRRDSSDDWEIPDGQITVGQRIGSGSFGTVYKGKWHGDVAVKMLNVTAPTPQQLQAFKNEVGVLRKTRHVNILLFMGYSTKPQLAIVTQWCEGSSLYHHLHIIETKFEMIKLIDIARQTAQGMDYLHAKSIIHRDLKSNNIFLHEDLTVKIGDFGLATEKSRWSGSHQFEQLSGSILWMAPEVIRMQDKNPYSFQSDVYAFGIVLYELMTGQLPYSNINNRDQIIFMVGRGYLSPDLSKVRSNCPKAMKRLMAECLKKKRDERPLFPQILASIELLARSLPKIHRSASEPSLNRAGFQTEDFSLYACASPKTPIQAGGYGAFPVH
T1 sequence (Q96SW2 whole entry): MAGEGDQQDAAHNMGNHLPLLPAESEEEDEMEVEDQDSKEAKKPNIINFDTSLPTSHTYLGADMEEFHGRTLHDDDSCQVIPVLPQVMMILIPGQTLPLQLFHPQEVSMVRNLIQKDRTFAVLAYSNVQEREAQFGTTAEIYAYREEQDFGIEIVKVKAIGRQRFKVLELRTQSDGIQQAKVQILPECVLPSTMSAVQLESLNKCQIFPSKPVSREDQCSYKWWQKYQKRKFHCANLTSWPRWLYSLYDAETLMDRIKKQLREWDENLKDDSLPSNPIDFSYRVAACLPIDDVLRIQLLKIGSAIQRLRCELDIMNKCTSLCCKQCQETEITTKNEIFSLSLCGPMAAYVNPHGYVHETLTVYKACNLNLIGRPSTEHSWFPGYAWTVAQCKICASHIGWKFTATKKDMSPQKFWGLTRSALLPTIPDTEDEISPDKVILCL
T1 sequence (Q16531 whole entry partner): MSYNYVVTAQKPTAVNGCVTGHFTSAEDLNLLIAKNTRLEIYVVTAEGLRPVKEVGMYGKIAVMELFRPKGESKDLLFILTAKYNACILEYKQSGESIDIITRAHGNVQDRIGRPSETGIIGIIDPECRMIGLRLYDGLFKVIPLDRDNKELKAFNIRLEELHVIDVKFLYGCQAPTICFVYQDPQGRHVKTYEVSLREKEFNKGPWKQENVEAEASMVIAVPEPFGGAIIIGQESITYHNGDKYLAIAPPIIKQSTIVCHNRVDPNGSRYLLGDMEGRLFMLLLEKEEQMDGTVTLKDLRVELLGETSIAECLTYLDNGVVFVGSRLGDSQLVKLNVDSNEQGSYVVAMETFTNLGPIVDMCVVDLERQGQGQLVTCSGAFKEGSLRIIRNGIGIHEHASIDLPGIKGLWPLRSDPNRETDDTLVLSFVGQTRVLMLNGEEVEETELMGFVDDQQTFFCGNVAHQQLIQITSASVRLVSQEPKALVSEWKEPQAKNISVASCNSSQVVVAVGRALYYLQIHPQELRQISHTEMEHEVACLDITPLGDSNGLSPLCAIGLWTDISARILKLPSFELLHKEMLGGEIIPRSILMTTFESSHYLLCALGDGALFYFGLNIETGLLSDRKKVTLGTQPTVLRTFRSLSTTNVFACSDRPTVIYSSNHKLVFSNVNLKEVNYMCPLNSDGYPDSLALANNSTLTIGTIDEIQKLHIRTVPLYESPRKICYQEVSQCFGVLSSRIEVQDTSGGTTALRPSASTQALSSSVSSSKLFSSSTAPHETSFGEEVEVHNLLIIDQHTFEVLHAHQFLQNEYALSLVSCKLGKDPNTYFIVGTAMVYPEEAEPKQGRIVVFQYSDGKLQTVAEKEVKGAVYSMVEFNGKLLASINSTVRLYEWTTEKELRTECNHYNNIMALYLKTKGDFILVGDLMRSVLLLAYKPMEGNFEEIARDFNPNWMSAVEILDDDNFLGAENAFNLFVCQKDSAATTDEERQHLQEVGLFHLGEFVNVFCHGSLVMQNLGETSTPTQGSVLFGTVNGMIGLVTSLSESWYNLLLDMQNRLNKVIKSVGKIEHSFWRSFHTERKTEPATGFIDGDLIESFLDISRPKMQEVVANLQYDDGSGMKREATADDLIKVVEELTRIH
Outline: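 Endogenous HiBiT knock-in on BRAF V600E in A375 cells (clone A375.10); 11-point half-log series, top 10 μM, 2, 6 or 24 h at 37° C. Lytic HiBiT luminescence, background-subtracted, normalized to DMSO; 4-parameter fit gives DC50, Emax (residual protein) and IP (inflection point).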

[2] = tested on: A375-NRAS^Q61K cells; assay: CTGlo Cell Viability Assay, A375-NRAS^Q61K (A375.11) cells, 96 hours; assay type: cell-based, human; details: Homo sapiens, 96 h, A375.11 (A375-NRAS^Q61K) cells; for Emax: lowest % viability achieved
Outline: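 A375 cells carrying BRAF V600E and NRAS Q61K were seeded at 250 cells/well with a 10-point half-log dose series (max 10 μM final). After 96 h at 37 °C, viability was read as ATP luminescence (CellTiter-Glo), background-subtracted and normalized to DMSO (100%). GI50 from 4-parameter fit; Emax is the lowest % viability.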

[3] = A375.10 cells, BRAF V600E, 2 hours, inflection point, read-out: HiBiT-Degradation A375.10 BRAF 2 hours IP
[4] = A375.10 cells, BRAF V600E, 2 hours, read-out: HiBiT-Degradation A375.10 BRAF 2 hours DC50
[5] = read-out: HiBiT-Degradation A375.10 BRAF 2 hours Emax, A375.10 cells, BRAF V600E, 2 hours, residual protein remaining
[6] = read-out: HiBiT-Degradation A375.10 BRAF 2 hours DC50, A375.10 cells, BRAF V600E, 2 hours
[7] = read-out: HiBiT-Degradation A375.10 BRAF 2 hours IP, A375.10 cells, BRAF V600E, 2 hours, inflection point
[8] = A375.10 cells, BRAF V600E, 2 hours, residual protein remaining, read-out: HiBiT-Degradation A375.10 BRAF 2 hours Emax
[9] = A375.10 cells, HiBiT, BRAF V600E, 24 hours, read-out: HiBiT-Degradation A375.10 BRAF 24 hours DC50
[10] = A375.10 cells, HiBiT, BRAF V600E, 24 hours, read-out: HiBiT-Degradation A375.10 BRAF 24 hours Emax
[11] = A375.10 cells, HiBiT, BRAF V600E, 24 hours, read-out: HiBiT-Degradation A375.10 BRAF 24 hours IP

Row | Compound | DC50 [1, 3] [nM] | DC50 [1, 4] [nM] | Emax [1, 5] [%] | GI50 [2] [nM] | Emax [2] [%] | DC50 [1, 6] [nM] | DC50 [1, 7] [nM] | Emax [1, 8] [%] | DC50 [1, 9] [nM] | Emax [1, 10] [%] | DC50 [1, 11] [nM]
1 | Cn1nc(N2CCC(=O)NC2=O)c2cc(F)c(C3CCC(N4CCC5(CC4)CC(c4cnc6ccc(Oc7c(F)ccc(NS(=O)(=O)N8CC[C@@H](F)C8)c7C#N)cc6n4)C5)CC3)cc21 (stereo partly drawn) [Compound 267, (3R)-N-[2-cyano-3-[3-[7-[4-[3-(2,4-dioxohexahydropyrimidin-1-yl)-5-fluoro-1-methyl-indazol-6-yl]cyclohexyl]-7-azaspiro[3.5]nonan-2-yl]quinoxalin-6-yl]oxy-4-fluoro-phenyl]-3-fluoro-pyrrolidine-1-sulfonamide] | < 1000 | < 1000 | < 50 | < 1000 | < 50 | – | – | – | – | – | –
2 | CO[C@H]1CCN(S(=O)(=O)Nc2ccc(F)c(Oc3ccc4ncn(C5CC6(CCN(C7CC8(C7)CN(c7cc9c(cc7F)c(N7CCC(=O)NC7=O)nn9C)C8)CC6)C5)c(=O)c4c3)c2C#N)C1 (stereo partly drawn) [Compound 272, (3S)-N-[2-cyano-3-[3-[7-[2-[3-(2,4-dioxohexahydropyrimidin-1-yl)-5-fluoro-1-methyl-indazol-6-yl]-2-azaspiro[3.3]heptan-6-yl]-7-azaspiro[3.5]nonan-2-yl]-4-oxo-quinazolin-6-yl]oxy-4-fluoro-phenyl]-3-methoxy-pyrrolidine-1-sulfonamide] | – | – | < 50 | > 10000 | 50 to 90 | < 1000 | < 1000 | – | – | – | –
3 | CCN(C)S(=O)(=O)Nc1ccc(F)c(Oc2ccc3ncn(C4CCN(C5CC6(CCN(c7cc8c(cc7F)c(N7CCC(=O)NC7=O)nn8C)CC6)C5)CC4)c(=O)c3c2)c1C#N [Compound 274, 6-[2-cyano-3-[[ethyl(methyl)sulfamoyl]amino]-6-fluoro-phenoxy]-3-[1-[7-[3-(2,4-dioxohexahydropyrimidin-1-yl)-5-fluoro-1-methyl-indazol-6-yl]-7-azaspiro[3.5]nonan-2-yl]-4-piperidyl]-4-oxo-quinazoline] | < 1000 | < 1000 | – | < 1000 | < 50 | – | – | < 50 | – | – | –
4 | CO[C@@H]1CCN(S(=O)(=O)Nc2ccc(F)c(Oc3ccc4ncc(C5CC6(CCN(C7CC8(C7)CN(c7cc9c(cc7F)c(N7CCC(=O)NC7=O)nn9C)C8)CC6)C5)nc4c3)c2C#N)C1 (stereo partly drawn) [Compound 278, (3R)-N-[2-cyano-3-[3-[7-[2-[3-(2,4-dioxohexahydropyrimidin-1-yl)-5-fluoro-1-methyl-indazol-6-yl]-2-azaspiro[3.3]heptan-6-yl]-7-azaspiro[3.5]nonan-2-yl]quinoxalin-6-yl]oxy-4-fluoro-phenyl]-3-methoxy-pyrrolidine-1-sulfonamide] | – | – | – | < 1000 | < 50 | < 1000 | < 1000 | < 50 | – | – | –
5 | CO[C@H]1CCN(S(=O)(=O)Nc2ccc(F)c(Oc3ccc4ncc(C5CC6(CCN(C7CC8(C7)CN(c7cc9c(cc7F)c(N7CCC(=O)NC7=O)nn9C)C8)CC6)C5)nc4c3)c2C#N)C1 (stereo partly drawn) [Compound 279, (3S)-N-[2-cyano-3-[3-[7-[2-[3-(2,4-dioxohexahydropyrimidin-1-yl)-5-fluoro-1-methyl-indazol-6-yl]-2-azaspiro[3.3]heptan-6-yl]-7-azaspiro[3.5]nonan-2-yl]quinoxalin-6-yl]oxy-4-fluoro-phenyl]-3-methoxy-pyrrolidine-1-sulfonamide] | – | – | – | > 10000 | 50 to 90 | < 1000 | < 1000 | 50 to 90 | – | – | –
6 | Cn1nc(N2CCC(=O)NC2=O)c2cc(F)c(N3CC4(CC(N5CCC6(CC5)CC(c5cnc7ccc(Oc8c(F)ccc(NS(=O)(=O)C9CCCC9)c8C#N)cc7n5)C6)C4)C3)cc21 [Compound 283, N-[2-cyano-3-[3-[7-[2-[3-(2,4-dioxohexahydropyrimidin-1-yl)-5-fluoro-1-methyl-indazol-6-yl]-2-azaspiro[3.3]heptan-6-yl]-7-azaspiro[3.5]nonan-2-yl]quinoxalin-6-yl]oxy-4-fluoro-phenyl]cyclopentanesulfonamide] | – | – | – | < 1000 | 50 to 90 | < 1000 | < 1000 | < 50 | – | – | –
7 | CCN(C)S(=O)(=O)Nc1ccc(F)c(Oc2ccc3ncn(C4CC5(C4)CN(CC4CCN(c6cc7c(cc6F)c(N6CCC(=O)NC6=O)nn7C)CC4)C5)c(=O)c3c2)c1C#N [Compound 296, 6-[2-cyano-3-[[ethyl(methyl)sulfamoyl]amino]-6-fluoro-phenoxy]-3-[2-[[1-[3-(2,4-dioxohexahydropyrimidin-1-yl)-5-fluoro-1-methyl-indazol-6-yl]-4-piperidyl]methyl]-2-azaspiro[3.3]heptan-6-yl]-4-oxo-quinazoline] | < 1000 | < 1000 | – | < 1000 | 50 to 90 | – | – | 50 to 90 | < 1000 | < 50 | < 1000
8 | CCN(C)S(=O)(=O)Nc1ccc(F)c(Oc2ccc3ncc(C4CC5(C4)CN(C4CC6(C4)CN(c4cc7c(cc4F)c(N4CCC(=O)NC4=O)nn7C)C6)C5)nc3c2)c1C#N (stereo not drawn) [Compound 303, 7-[2-cyano-3-[[ethyl(methyl)sulfamoyl]amino]-6-fluoro-phenoxy]-2-[2-[2-[3-(2,4-dioxohexahydropyrimidin-1-yl)-5-fluoro-1-methyl-indazol-6-yl]-2-azaspiro[3.3]heptan-6-yl]-2-azaspiro[3.3]heptan-6-yl]quinoxaline] | < 1000 | 1000 to 10000 | – | > 10000 | 50 to 90 | – | – | 50 to 90 | – | – | –
9 | CCN(C)S(=O)(=O)Nc1ccc(F)c(C(=O)c2ccc3ncn(C4CC5(CCN(C6CC7(C6)CN(c6cc8c(cc6F)c(N6CCC(=O)NC6=O)nn8C)C7)CC5)C4)c(=O)c3c2)c1F (stereo not drawn) [Compound 304, 3-[7-[2-[3-(2,4-dioxohexahydropyrimidin-1-yl)-5-fluoro-1-methyl-indazol-6-yl]-2-azaspiro[3.3]heptan-6-yl]-7-azaspiro[3.5]nonan-2-yl]-6-[3-[[ethyl(methyl)sulfamoyl]amino]-2,6-difluoro-benzoyl]-4-oxo-quinazoline] | < 1000 | 1000 to 10000 | – | 1000 to 10000 | 50 to 90 | – | – | 50 to 90 | < 1000 | < 50 | < 1000
10 | CCN(C)S(=O)(=O)Nc1ccc(F)c(Oc2ccc3ncn(C4CC5(C4)CN(C4CC6(C4)CN(c4cc7c(cc4F)c(N4CCC(=O)NC4=O)nn7C)C6)C5)c(=O)c3c2)c1C#N (stereo not drawn) [Compound 305, 6-[2-cyano-3-[[ethyl(methyl)sulfamoyl]amino]-6-fluoro-phenoxy]-3-[2-[2-[3-(2,4-dioxohexahydropyrimidin-1-yl)-5-fluoro-1-methyl-indazol-6-yl]-2-azaspiro[3.3]heptan-6-yl]-2-azaspiro[3.3]heptan-6-yl]-4-oxo-quinazoline] | < 1000 | < 1000 | – | < 1000 | 50 to 90 | – | – | < 50 | < 1000 | < 50 | < 1000
11 | CCN(C)S(=O)(=O)Nc1ccc(F)c(C(=O)c2ccc3ncn(C4CC5(C4)CN(C4CC6(C4)CN(c4cc7c(cc4F)c(N4CCC(=O)NC4=O)nn7C)C6)C5)c(=O)c3c2)c1F (stereo not drawn) [Compound 306, 3-[2-[2-[3-(2,4-dioxohexahydropyrimidin-1-yl)-5-fluoro-1-methyl-indazol-6-yl]-2-azaspiro[3.3]heptan-6-yl]-2-azaspiro[3.3]heptan-6-yl]-6-[3-[[ethyl(methyl)sulfamoyl]amino]-2,6-difluoro-benzoyl]-4-oxo-quinazoline] | < 1000 | < 1000 | – | > 10000 | 50 to 90 | – | – | 50 to 90 | – | – | –
12 | CCN(C)S(=O)(=O)Nc1ccc(F)c(Oc2ccc3ncn([C@H]4COC5(C4)CN(C4CCN(c6cc7c(cc6F)c(N6CCC(=O)NC6=O)nn7C)CC4)C5)c(=O)c3c2)c1C#N [Compound 309, (7R)-7-[6-[2-cyano-3-[[ethyl(methyl)sulfamoyl]amino]-6-fluoro-phenoxy]-4-oxo-quinazolin-3-yl]-2-[1-[3-(2,4-dioxohexahydropyrimidin-1-yl)-5-fluoro-1-methyl-indazol-6-yl]-4-piperidyl]-5-oxa-2-azaspiro[3.4]octane] | < 1000 | > 10000 | – | > 10000 | 50 to 90 | – | – | 50 to 90 | < 1000 | < 50 | < 1000
